Data taken from patent US20240199587A1, “HETEROCYCLIC COMPOUNDS” (Hoffmann-La Roche Inc., priority 2021, published 2024).

molecular target: T1, MAGL (Homo sapiens, UniProt Q99685); experiment: 2-AG assay (MAGL inhibitory activity, hydrolysis of 2-arachidonoylglycerol to arachidonic acid followed by mass spectrometry); assay type: biochemical; conditions: 8 μM 2-arachidonoylglycerol, 15 min pre-incubation, 30 min incubation at RT, RapidFire MS readout
T1 sequence (Q99685 1-303): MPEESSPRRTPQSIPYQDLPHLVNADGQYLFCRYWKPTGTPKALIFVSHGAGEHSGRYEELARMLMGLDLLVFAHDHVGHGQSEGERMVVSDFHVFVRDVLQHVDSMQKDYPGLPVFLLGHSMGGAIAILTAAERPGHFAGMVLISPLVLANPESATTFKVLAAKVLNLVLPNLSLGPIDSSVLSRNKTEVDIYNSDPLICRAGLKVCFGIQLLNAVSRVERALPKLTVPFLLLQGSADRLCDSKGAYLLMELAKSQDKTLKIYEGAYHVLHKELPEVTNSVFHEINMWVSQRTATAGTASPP
In short: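 Arachidonic acid released from 8 μM 2-arachidonoylglycerol was quantified by online SPE triple-quadrupole MS (negative ESI, 303.1→259.1), normalised to d8-arachidonic acid internal standard. Reaction ran 30 min at RT after 15 min RT compound pre-incubation with […] MAGL in TRIS/EDTA/Tween-20 buffer, 2.5% DMSO.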

Compound	IC50
O=C(N1CC2(CC(Cc3ccc(C(F)(F)F)cn3)C2)C1)N1CC2(CC(n3cnc(C4(O)CC4)n3)C2)C1 [Example 408, [6-[3-(1-hydroxycyclopropyl)-1,2,4-triazol-1-yl]-2-azaspiro[3.3]heptan-2-yl]-[6-[[5-(trifluoromethyl)-2-pyridyl]methyl]-2-azaspiro[3.3]heptan-2-yl]methanone]	0.31 nM
CC(C)(C)c1nc(-c2ccc(C(=O)N3CC4(CC(n5cnc(C(F)(F)F)n5)C4)C3)cc2)no1 [Example 4, (4-(5-(tert-butyl)-1,2,4-oxadiazol-3-yl)phenyl)(6-(3-(trifluoromethyl)-1H-1,2,4-triazol-1-yl)-2-azaspiro[3.3]heptan-2-yl)methanone]	11.4 nM
O=C(N1CC2(CC(n3cnc(C4CC4)n3)C2)C1)N1CC2(C1)CN(S(=O)(=O)c1ccc(F)c(C(F)(F)F)c1)C2 [Example 236, [6-(3-cyclopropyl-1,2,4-triazol-1-yl)-2-azaspiro[3.3]heptan-2-yl]-[2-[4-fluoro-3-(trifluoromethyl)phenyl]sulfonyl-2,6-diazaspiro[3.3]heptan-6-yl]methanone]	6.2 nM
N#Cc1cc(O[C@H]2C[C@@H]3CN(C(=O)N4CC5(CC(n6cnc(C7CC7)n6)C5)C4)C[C@@H]3C2)ccc1F [Example 127, 2-fluoro-5-[[rac-(3aS,6aR)-2-[6-(3-cyclopropyl-1,2,4-triazol-1-yl)-2-azaspiro[3.3]heptane-2-carbonyl]-3,3a,4,5,6,6a-hexahydro-1H-cyclopenta[c]pyrrol-5-yl]oxy]benzonitrile]	14.4 nM
CS(=O)(=O)c1cccc(CC2CC3(C2)CN(C(=O)N2CC4(CC(n5cnc(C6CC6)n5)C4)C2)C3)c1 [Example 192, [6-(3-cyclopropyl-1,2,4-triazol-1-yl)-2-azaspiro[3.3]heptan-2-yl]-[6-(3-mesylbenzyl)-2-azaspiro[3.3]heptan-2-yl]methanone]	0.2 nM
O=C(N1CC2(CC(Cc3ccc(F)cn3)C2)C1)N1CC2(CC(n3cnc(C4CC4)n3)C2)C1 [Example 217, [6-(3-cyclopropyl-1,2,4-triazol-1-yl)-2-azaspiro[3.3]heptan-2-yl]-[6-[(5-fluoro-2-pyridyl)methyl]-2-azaspiro[3.3]heptan-2-yl]methanone]	2 nM
O=C(N1CC2(CCC(Cc3ccc(C(F)(F)F)cn3)C2)C1)N1CC2(CC(n3cnc(C4(O)CC4)n3)C2)C1 (stereo not shown) [Example 389, [6-[3-(1-hydroxycyclopropyl)-1,2,4-triazol-1-yl]-2-azaspiro[3.3]heptan-2-yl]-[6-[[5-(trifluoromethyl)-2-pyridyl]methyl]-2-azaspiro[3.4]octan-2-yl]methanone]	8.68 nM
O=C(N1CC2(CC(Oc3ccc(C(F)(F)F)nc3)C2)C1)N1CC2(CC(n3cnc(C4CC4)n3)C2)C1 [Example 80, (6-(3-cyclopropyl-1H-1,2,4-triazol-1-yl)-2-azaspiro[3.3]heptan-2-yl)(6-((6-(trifluoromethyl)pyridin-3-yl)oxy)-2-azaspiro[3.3]heptan-2-yl)methanone]	2.2 nM
CS(=O)(=O)c1ccc(CC2CC3(C2)CN(C(=O)N2CC4(CC(c5ccc(C(F)(F)F)nc5)C4)C2)C3)cc1 [Example 530, [6-[(4-methylsulfonylphenyl)methyl]-2-azaspiro[3.3]heptan-2-yl]-[6-[6-(trifluoromethyl)-3-pyridyl]-2-azaspiro[3.3]heptan-2-yl]methanone]	350 nM
O=C(N1CC2(CC(Cc3ccc(F)cc3F)C2)C1)N1CC2(CC(n3cnc(C4CC4)n3)C2)C1 [Example 41, [6-(3-cyclopropyl-1,2,4-triazol-1-yl)-2-azaspiro[3.3]heptan-2-yl]-[6-[(2,4-difluorophenyl)methyl]-2-azaspiro[3.3]heptan-2-yl]methanone]	0.04 nM
O=C(N1CC(c2ccc(OC(F)(F)F)cc2F)C1)N1CC2(CC(n3cnc(C4CC4)n3)C2)C1 [Example 86, [6-(3-cyclopropyl-1,2,4-triazol-1-yl)-2-azaspiro[3.3]heptan-2-yl]-[3-[2-fluoro-4-(trifluoromethoxy)phenyl]azetidin-1-yl]methanone]	0.4 nM
O=C(N1CC2(CC(Cc3ccc4[nH]ncc4n3)C2)C1)N1CC2(CC(n3cnc(C4(O)CC4)n3)C2)C1 [Example 383, [6-[3-(1-hydroxycyclopropyl)-1,2,4-triazol-1-yl]-2-azaspiro[3.3]heptan-2-yl]-[6-(1H-pyrazolo[4,3-b]pyridin-5-ylmethyl)-2-azaspiro[3.3]heptan-2-yl]methanone]	39.8 nM
CS(=O)(=O)c1ccccc1CN1CC2(C1)CN(C(=O)N1CC3(CC(n4cnc(C5CC5)n4)C3)C1)C2 [Example 502, [6-(3-cyclopropyl-1,2,4-triazol-1-yl)-2-azaspiro[3.3]heptan-2-yl]-[6-[(2-methylsulfonylphenyl)methyl]-2,6-diazaspiro[3.3]heptan-2-yl]methanone]	12.1 nM
O=C(N1C[C@H]2C[C@H](Oc3ccc(C(F)(F)F)cc3)C[C@H]2C1)N1CC2(CC(n3cnc(C4CC4)n3)C2)C1 [Example 113, [6-(3-cyclopropyl-1,2,4-triazol-1-yl)-2-azaspiro[3.3]heptan-2-yl]-[rac-(3aS,6aR)-5-[4-(trifluoromethyl)phenoxy]-3,3a,4,5,6,6a-hexahydro-1H-cyclopenta[c]pyrrol-2-yl]methanone]	4.8 nM
CS(=N)(=O)c1cccc(CC2CC3(C2)CN(C(=O)N2CC4(CC(n5cnc(C6(O)CC6)n5)C4)C2)C3)c1 (stereo not shown) [Example 374, [6-[3-(1-hydroxycyclopropyl)-1,2,4-triazol-1-yl]-2-azaspiro[3.3]heptan-2-yl]-[6-[[3-(methylsulfonimidoyl)phenyl]methyl]-2-azaspiro[3.3]heptan-2-yl]methanone]	52.9 nM
O=C(N1CC2(CC(n3cnc(C4CC4)n3)C2)C1)N1CC2(C1)CN(S(=O)(=O)NCC1(C(F)(F)F)CC1)C2 [Example 247, 6-[6-(3-cyclopropyl-1,2,4-triazol-1-yl)-2-azaspiro[3.3]heptane-2-carbonyl]-N-[[1-(trifluoromethyl)cyclopropyl]methyl]-2,6-diazaspiro[3.3]heptane-2-sulfonamide]	12.2 nM
CS(=O)(=O)c1ccc(C2CC3(C2)CN(C(=O)N2CC4(CC(Cc5ccc(F)cc5F)C4)C2)C3)cc1 [Example 346, [6-[(2,4-difluorophenyl)methyl]-2-azaspiro[3.3]heptan-2-yl]-[6-(4-methylsulfonylphenyl)-2-azaspiro[3.3]heptan-2-yl]methanone]	15.7 nM
CC(C)(C)c1nc(-c2ccc(C(=O)N3CC4(CC(n5ccc(C#N)n5)C4)C3)cc2)no1 [Example 8, 1-[2-[4-(5-tert-butyl-1,2,4-oxadiazol-3-yl)benzoyl]-2-azaspiro[3.3]heptan-6-yl]pyrazole-3-carbonitrile]	485 nM
O=C(N1CC(Oc2ccc(C(F)(F)F)nn2)C1)N1CC2(CC(n3cnc(C4CC4)n3)C2)C1 [Example 248, [6-(3-cyclopropyl-1,2,4-triazol-1-yl)-2-azaspiro[3.3]heptan-2-yl]−[3-[6-(trifluoromethyl)pyridazin-3-yl]oxyazetidin-1-yl]methanone]	13.4 nM
O=C(N1CC(Oc2ccc(C(F)(F)F)cc2F)C1)N1CC2(CC(n3cnc(C4CC4)n3)C2)C1 [Example 96, (6-(3-cyclopropyl-1H-1,2,4-triazol-1-yl)-2-azaspiro[3.3]heptan-2-yl)(3-(2-fluoro-4-(trifluoromethyl)phenoxy)azetidin-1-yl)methanone]	2.7 nM
CS(=O)(=O)c1cc(Cl)ccc1-c1ccc(C2CN(C(=O)N3CC4(CC(c5cnc(C(F)(F)F)nc5)C4)C3)C2)cc1 [Example 344, [3-[4-(4-chloro-2-methylsulfonyl-phenyl)phenyl]azetidin-1-yl]-[6-[2-(trifluoromethyl)pyrimidin-5-yl]-2-azaspiro[3.3]heptan-2-yl]methanone]	1.62 nM
CS(=O)(=O)c1cccc(CN2CCC3(CC2)CN(C(=O)N2CC4(CC(n5cnc(C6CC6)n5)C4)C2)C3)c1 [Example 485, [6-(3-cyclopropyl-1,2,4-triazol-1-yl)-2-azaspiro[3.3]heptan-2-yl]-[7-[(3-methylsulfonylphenyl)methyl]-2,7-diazaspiro[3.5]nonan-2-yl]methanone]	26.7 nM
O=C(N1CCC(NS(=O)(=O)c2ccc(F)cc2)CC1)N1CC2(CC(n3cnc(C4CC4)n3)C2)C1 [Example 336, N-[1-[6-(3-cyclopropyl-1,2,4-triazol-1-yl)-2-azaspiro[3.3]heptane-2-carbonyl]-4-piperidyl]-4-fluoro-benzenesulfonamide]	1440 nM
O=C(N1CC2(CCN(Cc3ccc(C(F)(F)F)nc3)CC2)C1)N1CC2(CC(n3cnc(C4CC4)n3)C2)C1 [Example 464, [6-(3-cyclopropyl-1,2,4-triazol-1-yl)-2-azaspiro[3.3]heptan-2-yl]-[7-[[6-(trifluoromethyl)-3-pyridyl]methyl]-2,7-diazaspiro[3.5]nonan-2-yl]methanone]	5.05 nM
O=C(c1cnc(OCC2(C(F)(F)F)CC2)c(C2COC2)c1)N1CC2(CC(n3cnc(C4CC4)n3)C2)C1 [Example 154, [6-(3-cyclopropyl-1,2,4-triazol-1-yl)-2-azaspiro[3.3]heptan-2-yl]−[5-(oxetan-3-yl)-6-[[1-(trifluoromethyl)cyclopropyl]methoxy]-3-pyridyl]methanone]	10 nM
